As usually defined, the melting point is the temperature, or range, at which the solid turns liquid.

This is an account of results in publication PMC8468039, “Development of New Meridianin/Leucettine-Derived Hybrid Small Molecules as Nanomolar Multi-Kinase Inhibitors with Antitumor Activity” (Biomedicines, 2021).

The structures appear in SMILES notation.

For data set [1], the system named is CCRF-CEM. As to the kind of experiment: NCI growth inhibition (SRB) assay. Format: cell-based. The following applies: Homo sapiens, Leukemia, single dose 10 µM, 48 h, read-out: Percent Growth Inhibition (GI). An outline of the steps: (§1)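 Following the NCI Drug Evaluation Branch procedure, tumor cells were treated with compound for 48 h. Sulforhodamine B staining then measured cell growth and viability.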

For data set [2], the system named is PC-3. Nature of the data set: NCI growth inhibition (SRB) assay. It is filed as cell-based. The following applies: Homo sapiens, PC-3, Prostate Cancer, single dose 10 µM, 48 h, read-out: Percent Growth Inhibition (GI). An outline of the steps: as §1
Data set [3] deals with RPMI-8226. Nature of the data set: NCI growth inhibition (SRB) assay. Format: cell-based. The following applies: Homo sapiens, RPMI-8226, Leukemia, single dose 10 µM, 48 h, read-out: Percent Growth Inhibition (GI). In outline: as §1
Data set [4] concerns K-562. Nature of the data set: NCI growth inhibition (SRB) assay. It is filed as cell-based. The following applies: Homo sapiens, K562, K-562, Leukemia, single dose 10 µM, 48 h, read-out: Percent Growth Inhibition (GI). An outline of the steps:
as §1

Data set [5] has as its system HL-60(TB). Nature of the data set: NCI growth inhibition (SRB) assay. It is filed as cell-based. The conditions noted are these: Homo sapiens, Leukemia, single dose 10 µM, 48 h, read-out: Percent Growth Inhibition (GI). An outline of the steps:
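SRB-based viability measured after 48 h treatment, per NCI protocol.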

Data set [6] deals with UO-31. As to the kind of experiment: NCI growth inhibition (SRB) assay. Format: cell-based. The following applies: Homo sapiens, UO-31, Renal Cancer, single dose 10 µM, 48 h, read-out: Percent Growth Inhibition (GI). An outline of the steps:
as §1

In data set [7] the test system is COLO 205. Nature of the data set: NCI growth inhibition (SRB) assay. The following applies: Homo sapiens, COLO 205, Colon Cancer, single dose 10 µM, 48 h, read-out: Percent Growth Inhibition (GI). Format: cell-based. In outline: as §1
In data set [8] the test system is UACC-62. As to the kind of experiment: NCI growth inhibition (SRB) assay. Format: cell-based. The conditions noted are these: Homo sapiens, UACC-62, Melanoma, single dose 10 µM, 48 h, read-out: Percent Growth Inhibition (GI). An outline of the steps:
as §1

The subject of data set [9] is HT29. Nature of the data set: NCI growth inhibition (SRB) assay. It is filed as cell-based. The following applies: Homo sapiens, HT-29, HT29, Colon Cancer, single dose 10 µM, 48 h, read-out: Percent Growth Inhibition (GI). In outline: as §1
Data set [10] has as its system SNB-75. Nature of the data set: NCI growth inhibition (SRB) assay. Format: cell-based. The following applies: Homo sapiens, SNB-75, CNS Cancer, single dose 10 µM, 48 h, read-out: Percent Growth Inhibition (GI). An outline of the steps: as §1
For data set [11], the system named is HOP-92. As to the kind of experiment: NCI growth inhibition (SRB) assay. Format: cell-based. The conditions noted are these: Homo sapiens, HOP-92, Non-Small Cell Lung Cancer, single dose 10 µM, 48 h, read-out: Percent Growth Inhibition (GI). An outline of the steps:
as §1

The subject of data set [12] is NCI-H522. Nature of the data set: NCI growth inhibition (SRB) assay. Format: cell-based. The conditions noted are these: Homo sapiens, NCI-H522, Non-Small Cell Lung Cancer, single dose 10 µM, 48 h, read-out: Percent Growth Inhibition (GI). In outline: as §1
Data set [13] concerns the target T1, BRAF (Homo sapiens, UniProt P15056).
T1 construct: purchased Reaction Biology Corp
Nature of the data set: In vitro kinase inhibition assay (HotSpot, Reaction Biology). It is filed as biochemical. The conditions noted are these: single dose of 10 µM; 10 µM ATP as printed; read-out: Percent Inhibition, BRAF. As to the method:
(§2) The in vitro kinase inhibition assay was carried out by Reaction Biology Corp. (Reaction Biology Corp., Chester, PA, USA) Kinase HotSpot^SM service (http://www.reactionbiology.com, accessed on 15 January 2021), following the previously reported methods. (For details, see Supplementary Material).
(§3) As mentioned in the introduction, to get insights about the kinase inhibition profile of the hybrid small molecule 5a, an in vitro screening over a panel of 14 cancer-related kinases was carried out. Accordingly, 10 µM concentrations of compound 5a were used in a kinase inhibition assay over various kinase groups and families in the presence of 10 µM ATP using HotSpotSM technology. To get a comprehensive picture of the inhibitory activities of the tested compound (5a) against the kinase panel, data are illustrated in Table 1. […] Compound 5a was also able to suppress the kinase activity of the epidermal growth factor receptor (EGFR), platelet-derived growth factor receptor-alpha (PDGFRα), and cyclin-dependent kinase 2 (CDK2) with modest inhibition values of 26.99 ± 0.9, 24.0 ± 0.4, and 20.1 ± 0.1%, respectively. […] Several studies have confirmed direct relationships between the most affected kinases (FMS, LCK, LYN, and DAPK1) and different human disorders including cancer.
(§4) 5. Protocol of Kinase assay
(§5) Kinases inhibitory activities were assessed by the HotSpot assay platform, which contained specific kinase/substrate pairs along with required cofactors. Base reaction buffer: 20 mM Hepes (pH 7.5), 10 mM MgCl2, 1 mM EGTA, 0.02% Brij35, 0.02 mg/ml BSA, 0.1 mM Na3VO4, 2 mM DTT, 1% DMSO. Testing compounds were dissolved in 100% DMSO to specific concentration. The serial dilution was conducted by Integra Viaflo Assist in DMSO. The reaction mixture containing the examined compound and 33P-ATP was incubated at room temperature for 2h and radioactivity was detected by filter-binding method. Kinase activity data were expressed as the percent remaining kinase activity in test samples compared to vehicle (dimethyl sulfoxide) reactions. IC50 values and curve fits were obtained using Prism (GraphPad Software).
(§6) 6. Biology raw data for IC50 determination
(§7) Paper ID Cpd ID NSC Number

The target in data set [14] is T2, c-MET (Homo sapiens, UniProt P08581).
T2 construct: purchased Reaction Biology Corp
Described as above. It is filed as biochemical. The conditions noted are these: single dose of 10 µM; 10 µM ATP as printed; read-out: Percent Inhibition, c-MET. How it is done: as §2, §3, §4, §5, §6, §7

The target of data set [15] is T3, FLT1/VEGFR1 (Homo sapiens, UniProt P17948).
T3 construct: purchased Reaction Biology Corp
Described as above. It is filed as biochemical. The following applies: single dose of 10 µM; 10 µM ATP as printed; read-out: Percent Inhibition, FLT1/VEGFR1. As to the method:
as §2, §3, §4, §5, §6, §7

In data set [16] the target is T4, JAK3 (Homo sapiens, UniProt P52333).
T4 construct: purchased Reaction Biology Corp
T4 sequence (P52333 whole entry): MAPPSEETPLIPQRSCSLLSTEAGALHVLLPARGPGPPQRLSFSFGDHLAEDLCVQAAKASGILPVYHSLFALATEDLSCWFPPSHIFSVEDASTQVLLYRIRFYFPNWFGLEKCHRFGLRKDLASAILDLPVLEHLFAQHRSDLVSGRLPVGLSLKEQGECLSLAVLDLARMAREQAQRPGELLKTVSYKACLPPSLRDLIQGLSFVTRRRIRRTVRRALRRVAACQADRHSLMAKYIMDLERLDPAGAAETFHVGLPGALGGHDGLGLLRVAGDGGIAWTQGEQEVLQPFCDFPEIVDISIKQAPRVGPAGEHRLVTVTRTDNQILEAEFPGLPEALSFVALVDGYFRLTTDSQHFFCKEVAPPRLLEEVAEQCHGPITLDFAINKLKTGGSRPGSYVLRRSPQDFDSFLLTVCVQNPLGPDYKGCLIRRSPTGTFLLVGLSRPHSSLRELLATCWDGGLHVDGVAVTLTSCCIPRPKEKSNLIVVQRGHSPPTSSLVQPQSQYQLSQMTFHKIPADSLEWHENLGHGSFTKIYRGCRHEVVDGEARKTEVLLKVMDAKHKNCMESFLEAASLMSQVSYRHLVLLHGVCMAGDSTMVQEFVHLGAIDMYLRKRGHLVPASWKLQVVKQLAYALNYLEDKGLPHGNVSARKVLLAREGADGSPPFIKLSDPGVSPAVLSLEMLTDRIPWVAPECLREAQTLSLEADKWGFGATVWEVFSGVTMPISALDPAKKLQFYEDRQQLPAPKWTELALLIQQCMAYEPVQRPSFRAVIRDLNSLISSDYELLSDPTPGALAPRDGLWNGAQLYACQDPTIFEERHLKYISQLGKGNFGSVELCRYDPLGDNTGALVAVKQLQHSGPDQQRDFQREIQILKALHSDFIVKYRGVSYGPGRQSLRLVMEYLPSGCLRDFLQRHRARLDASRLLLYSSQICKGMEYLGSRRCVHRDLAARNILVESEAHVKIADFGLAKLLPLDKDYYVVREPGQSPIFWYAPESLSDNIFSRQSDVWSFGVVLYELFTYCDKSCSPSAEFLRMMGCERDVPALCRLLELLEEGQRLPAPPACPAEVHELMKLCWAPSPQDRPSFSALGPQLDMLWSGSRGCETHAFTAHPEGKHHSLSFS
The data set is described as above. Format: biochemical. The conditions noted are these: single dose of 10 µM; read-out: Percent Inhibition, JAK3. How it is done:
as §2, §3, §4, §5, §6, §7

Data set [17] concerns the target T5, PDGFRα (Homo sapiens, UniProt P16234).
T5 construct: purchased Reaction Biology Corp
The description is as above. Format: biochemical. The following applies: single dose of 10 µM; 10 µM ATP as printed; read-out: Percent Inhibition, PDGFRα. As to the method:
as §2, §3, §4, §5, §6, §7

Data set [18] addresses T6, c-MER (Homo sapiens, UniProt Q12866).
T6 construct: purchased Reaction Biology Corp
The data set is described as above. Format: biochemical. The following applies: single dose of 10 µM; 10 µM ATP as printed; read-out: Percent Inhibition, c-MER. As to the method: as §2, §3, §4, §5, §6, §7

T6 sequence (Q12866 21-999): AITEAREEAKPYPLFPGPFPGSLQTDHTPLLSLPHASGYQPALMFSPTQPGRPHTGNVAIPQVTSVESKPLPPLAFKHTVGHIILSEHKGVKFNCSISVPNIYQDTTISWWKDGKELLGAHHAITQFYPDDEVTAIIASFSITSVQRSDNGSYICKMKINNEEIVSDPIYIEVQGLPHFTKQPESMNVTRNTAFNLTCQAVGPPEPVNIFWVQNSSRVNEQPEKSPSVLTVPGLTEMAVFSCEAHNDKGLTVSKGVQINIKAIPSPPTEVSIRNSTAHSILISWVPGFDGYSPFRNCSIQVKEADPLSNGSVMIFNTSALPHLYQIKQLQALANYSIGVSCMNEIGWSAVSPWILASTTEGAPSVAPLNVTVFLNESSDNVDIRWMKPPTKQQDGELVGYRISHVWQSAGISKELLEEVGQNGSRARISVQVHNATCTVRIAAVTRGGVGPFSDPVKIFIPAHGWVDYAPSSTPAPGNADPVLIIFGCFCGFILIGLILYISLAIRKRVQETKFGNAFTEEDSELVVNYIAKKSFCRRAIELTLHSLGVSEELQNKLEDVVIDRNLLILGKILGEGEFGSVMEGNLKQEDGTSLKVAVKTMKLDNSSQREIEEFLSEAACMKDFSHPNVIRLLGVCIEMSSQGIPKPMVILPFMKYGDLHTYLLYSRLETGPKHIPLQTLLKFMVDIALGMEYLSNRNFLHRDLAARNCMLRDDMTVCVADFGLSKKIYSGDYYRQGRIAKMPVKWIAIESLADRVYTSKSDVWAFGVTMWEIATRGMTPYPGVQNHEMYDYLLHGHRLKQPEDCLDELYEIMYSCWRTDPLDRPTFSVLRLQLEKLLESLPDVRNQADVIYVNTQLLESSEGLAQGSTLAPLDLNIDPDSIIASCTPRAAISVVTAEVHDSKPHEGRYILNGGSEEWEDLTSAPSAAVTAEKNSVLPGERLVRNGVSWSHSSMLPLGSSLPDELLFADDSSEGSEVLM
T5 sequence (P16234 24-1089): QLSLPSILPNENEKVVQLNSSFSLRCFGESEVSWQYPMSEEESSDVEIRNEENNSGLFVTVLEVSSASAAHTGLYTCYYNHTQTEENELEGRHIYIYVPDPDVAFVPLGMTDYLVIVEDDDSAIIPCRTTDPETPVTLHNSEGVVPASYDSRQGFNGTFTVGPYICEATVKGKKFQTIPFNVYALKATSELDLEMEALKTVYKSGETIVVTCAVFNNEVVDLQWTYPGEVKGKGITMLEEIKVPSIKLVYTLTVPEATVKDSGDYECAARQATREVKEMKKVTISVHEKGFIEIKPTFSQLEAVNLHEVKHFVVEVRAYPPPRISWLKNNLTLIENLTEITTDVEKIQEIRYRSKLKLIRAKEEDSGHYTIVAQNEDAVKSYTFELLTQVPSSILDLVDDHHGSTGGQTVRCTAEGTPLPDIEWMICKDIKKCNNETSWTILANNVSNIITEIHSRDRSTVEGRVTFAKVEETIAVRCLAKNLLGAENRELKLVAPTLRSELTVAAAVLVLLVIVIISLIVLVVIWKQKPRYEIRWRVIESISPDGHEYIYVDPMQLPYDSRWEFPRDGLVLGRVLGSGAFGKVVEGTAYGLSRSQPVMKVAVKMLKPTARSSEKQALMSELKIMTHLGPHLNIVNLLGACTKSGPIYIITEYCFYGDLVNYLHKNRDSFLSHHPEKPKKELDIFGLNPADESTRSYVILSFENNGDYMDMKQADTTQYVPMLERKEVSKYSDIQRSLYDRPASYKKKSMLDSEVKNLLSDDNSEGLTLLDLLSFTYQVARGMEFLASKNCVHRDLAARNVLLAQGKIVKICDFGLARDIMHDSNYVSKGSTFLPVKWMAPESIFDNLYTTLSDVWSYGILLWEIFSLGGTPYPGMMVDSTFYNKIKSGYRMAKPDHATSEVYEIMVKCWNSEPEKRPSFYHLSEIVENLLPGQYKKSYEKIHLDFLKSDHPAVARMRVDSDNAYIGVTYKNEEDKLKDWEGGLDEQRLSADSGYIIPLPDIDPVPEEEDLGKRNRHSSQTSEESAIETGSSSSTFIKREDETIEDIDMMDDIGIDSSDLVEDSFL
T1 sequence (P15056 whole entry): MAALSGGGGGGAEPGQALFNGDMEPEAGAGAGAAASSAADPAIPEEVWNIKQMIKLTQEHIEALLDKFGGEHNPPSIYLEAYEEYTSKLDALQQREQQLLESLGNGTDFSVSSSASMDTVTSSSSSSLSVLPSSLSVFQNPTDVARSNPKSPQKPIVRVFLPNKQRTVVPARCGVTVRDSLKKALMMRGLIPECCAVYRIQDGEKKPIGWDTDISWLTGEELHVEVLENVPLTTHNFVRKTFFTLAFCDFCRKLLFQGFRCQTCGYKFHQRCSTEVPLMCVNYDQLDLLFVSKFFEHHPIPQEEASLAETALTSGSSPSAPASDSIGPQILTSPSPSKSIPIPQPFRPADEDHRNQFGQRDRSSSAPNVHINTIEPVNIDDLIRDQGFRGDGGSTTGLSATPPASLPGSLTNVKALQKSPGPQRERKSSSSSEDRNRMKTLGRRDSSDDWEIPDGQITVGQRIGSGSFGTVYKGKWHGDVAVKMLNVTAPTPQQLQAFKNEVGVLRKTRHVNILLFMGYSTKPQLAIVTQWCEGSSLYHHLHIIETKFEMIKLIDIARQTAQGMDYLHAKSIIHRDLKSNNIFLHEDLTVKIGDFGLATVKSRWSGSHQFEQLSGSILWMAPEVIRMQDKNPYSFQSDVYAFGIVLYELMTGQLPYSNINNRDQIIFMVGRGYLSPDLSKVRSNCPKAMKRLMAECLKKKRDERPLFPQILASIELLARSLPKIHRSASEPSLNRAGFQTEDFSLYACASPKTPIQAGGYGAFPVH

With `COc1ccc(Oc2nc(Nc3ccc(N4CCOCC4)cc3)ncc2NC(=O)c2ccc3c(c2)OCO3)cc1` [5a, N-(4-(4-Methoxyphenoxy)-2-((4-morpholinophenyl)amino)pyrimidin-5-yl)benzo[d][1,3]dioxole-5-carboxamide], the melting point was 205.9 to 206.9 °C. Besides, the inhibition at 10 µM in data set [1] was 14.5%. For the same compound, in [2], the inhibition at 10 µM amounted to 11.7%. In addition, in [3], the inhibition at 10 µM stood at 21.8%. Further, the inhibition at 10 µM in data set [4] was 23.4%. The inhibition at 10 µM in data set [5] came out at 16.2%. For the same compound, the inhibition at 10 µM in data set [6] worked out at 36.7%. Moreover, the inhibition at 10 µM in [7] amounted to 1.75%. The inhibition at 10 µM in data set [8] was found to be 7.38%. In addition, the inhibition at 10 µM in data set [9] was 28.3%. Also, in data set [10], the inhibition at 10 µM was -3.98%. The inhibition at 10 µM in data set [11] was determined as 6.16%. Besides, the inhibition at 10 µM in data set [12] turned out to be 22.7%. Besides, in data set [13], the inhibition at 10 µM was found to be 4.1 ± 10.5%. For the same compound, the inhibition at 10 µM in [14] amounted to 12 ± 13.7%. The inhibition at 10 µM in data set [15] was -2.4 ± 1.7%. Moreover, the inhibition at 10 µM in data set [16] was determined as 11.2 ± 1.2%. For the same compound, the inhibition at 10 µM in data set [17] is 24 ± 0.4%. Further, the inhibition at 10 µM in [18] came out at 4.4 ± 0.1%.
